According to ChEMBL document CHEMBL5247610, “Discovery of 5-((4-(pyridin-3-yl)pyrimidin-2-yl)amino)-1H-indole-2-carboxamide derivatives as novel anti-cancer agents targeting Nur77” (Eur J Med Chem, 2022):
Active and inactive are the calls of the source. No cut-off for these calls is given here.

How the values were obtained:
HepG2 [1] = assay: Antiproliferative activity against human HepG2 cells assessed as cell viability at 10 uM incubated for 48 hrs by MTT assay; type: functional; settings: read-out: Activity
HepG2 [2] = assay: Antiproliferative activity against human HepG2 cells assessed as reduction in cell viability incubated for 48 hrs by MTT assay; type: functional, cell-based; settings: HepG2, 48 h
SMMC-7721 = assay: Antiproliferative activity against human SMMC-7721 cells assessed as reduction in cell viability incubated for 48 hrs by MTT assay; type: functional, cell-based; settings: SMMC-7721, 48 h
HeLa = assay: Antiproliferative activity against human HeLa cells assessed as reduction in cell viability incubated for 48 hrs by MTT assay; type: functional, cell-based
A549 = assay: Antiproliferative activity against human A549 cells assessed as reduction in cell viability incubated for 48 hrs by MTT assay; type: functional, cell-based; settings: A549, 48 h
[3] = Selectivity index, ratio of IC50 for human L02 cells to IC50 for human HepG2 cells by MTT assay; type: toxicity; settings: L02 cells versus HepG2 cells, read-out: Ratio IC50
[4] = Selectivity index, ratio of IC50 for human L02 cells to IC50 for human SMMC-7721 cells by MTT assay; type: toxicity; settings: L02 cells versus SMMC-7721 cells, read-out: Ratio IC50
[5] = Selectivity index, ratio of IC50 for human L02 cells to IC50 for human HeLa cells by MTT assay; type: toxicity; settings: L02 cells versus HeLa cells, read-out: Ratio IC50
[6] = Selectivity index, ratio of IC50 for human L02 cells to IC50 for human MDA-MB-231 cells by MTT assay; type: toxicity; settings: L02 cells versus MDA-MB-231 cells, read-out: Ratio IC50
[7] = Selectivity index, ratio of IC50 for human L02 cells to IC50 for human A549 cells by MTT assay; type: toxicity; settings: L02 cells versus A549 cells, read-out: Ratio IC50
[8] = molecular target: T1, Nuclear receptor subfamily 4immunitygroup A member 1 (Homo sapiens, UniProt P22736); assay: Binding affinity to Nur77 ligand binding domain (unknown origin) by surface plasmon resonance analysis
[9] = molecular target: T1, Nuclear receptor subfamily 4immunitygroup A member 1; assay: Binding affinity to pBind-Nur77-LBD (unknown origin) transfected in HEK293T cells co-transfected with pG5-Luc assessed as inhibition of Nur77 transcriptional activity by measuring inhibition of Nur77-driven luciferase activity at 5 uM incubated for 12 hrs by luciferase reporter gene assay; type: cell-based; settings: filed as modulator
[10] = molecular target: T2, Retinoic acid receptor RXR-alpha (Homo sapiens) (UniProt P19793); assay: Binding affinity to pBind-RXRalpha-LBD (unknown origin) transfected in HEK293T cells co-transfected with pG5-Luc at 5 uM incubated for 12 hrs by luciferase reporter gene assay; type: cell-based
T2 sequence (whole entry): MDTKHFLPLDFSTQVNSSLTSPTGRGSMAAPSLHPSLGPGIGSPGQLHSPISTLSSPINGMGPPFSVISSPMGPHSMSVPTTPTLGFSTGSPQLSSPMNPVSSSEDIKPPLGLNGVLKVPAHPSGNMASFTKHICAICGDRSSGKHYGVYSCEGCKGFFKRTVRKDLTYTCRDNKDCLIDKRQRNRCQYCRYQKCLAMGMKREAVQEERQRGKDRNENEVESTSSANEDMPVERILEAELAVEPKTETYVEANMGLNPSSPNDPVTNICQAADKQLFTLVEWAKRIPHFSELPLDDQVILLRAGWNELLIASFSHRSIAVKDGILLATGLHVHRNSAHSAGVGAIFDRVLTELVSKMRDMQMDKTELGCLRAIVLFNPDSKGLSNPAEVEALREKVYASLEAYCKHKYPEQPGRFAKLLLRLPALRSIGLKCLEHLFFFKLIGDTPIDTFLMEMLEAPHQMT

HepG2 [11] = assay: Induction of apoptosis in human HepG2 cells assessed as induction of PARP cleavage incubated for 12 hrs by western blot analysis; type: functional, cell-based
HepG2 [12] = assay: Induction of apoptosis in human HepG2 cells assessed as early apoptotic cells at 10 uM incubated for 12 hrs by AnnexinV-FITC/PI staining based flow cytometry (reference value: 0.83%); type: functional
HepG2 [13] = assay: Induction of apoptosis in human HepG2 cells assessed as necrotic cells at 10 uM incubated for 12 hrs by AnnexinV-FITC/PI staining based flow cytometry (reference value: 0.92%); type: functional
HepG2 [14] = assay: Induction of apoptosis in human HepG2 cells transfected with Nur77 siRNA assessed as early apoptotic cells at 10 uM incubated for 12 hrs by AnnexinV-FITC/PI staining based flow cytometry (reference value: 1.37%); type: functional
HepG2 [15] = assay: Induction of apoptosis in human HepG2 cells transfected with Nur77 siRNA assessed as late apoptotic cells at 10 uM incubated for 12 hrs by AnnexinV-FITC/PI staining based flow cytometry (reference value: 1.98%); type: functional
[16] = molecular target: T1, Nuclear receptor subfamily 4immunitygroup A member 1; assay: Modulation of GFP-Nur77 (unknown origin) transfected in human HepG2 cells assessed as induction of Nur77 translocation from nucleus to mitochondria at 10 uM incubated for 3 hrs by confocal microscopy; settings: filed as modulator
[17] = Toxicity in Zebra fish AB embryo assessed as induction of morphological abnormalities at 0.5 uM incubated for 72 hrs; set-up: species or system Danio rerio; settings: zebrafish
HepG2 [18] = assay: Antitumor activity against human HepG2 cells xenografted in BALB/c nude mouse assessed as inhibition of tumor growth at 50 mg/kg, ip administered once every day for 14 days; type: functional; settings: HepG2, 336 h, time 14 day, read-out: TGI
HepG2 [19] = assay: Antitumor activity against human HepG2 cells xenografted in BALB/c nude mouse assessed as induction of nuclear shrinkage in tumor tissues at 50 mg/kg, ip administered once every day for 14 days by H and E staining based analysis; type: functional, organism-based; settings: time 14.0 day
[20] = Toxicity in BALB/c nude mouse xenografted with human HepG2 cells assessed as effect on liver damage at 50 mg/kg ip administered once every day for 14 days by H and E staining based analysis; type: organism-based; settings: in vivo, 336 h, time 14 day
[21] = Toxicity in BALB/c nude mouse xenografted with human HepG2 cells assessed as effect on spleen damage at 50 mg/kg ip administered once every day for 14 days by H and E staining based analysis; type: organism-based; settings: in vivo, 336 h, time 14 day
[22] = Toxicity in BALB/c nude mouse xenografted with human HepG2 cells assessed as effect on lung damage at 50 mg/kg ip administered once every day for 14 days by H and E staining based analysis; type: organism-based; settings: in vivo, 336 h, time 14 day
[23] = Toxicity in BALB/c nude mouse xenografted with human HepG2 cells assessed as effect on kidney damage at 50 mg/kg ip administered once every day for 14 days by H and E staining based analysis; type: organism-based; settings: in vivo, 336 h, time 14 day

T1 sequence (P22736 whole entry, the tested form may be a part): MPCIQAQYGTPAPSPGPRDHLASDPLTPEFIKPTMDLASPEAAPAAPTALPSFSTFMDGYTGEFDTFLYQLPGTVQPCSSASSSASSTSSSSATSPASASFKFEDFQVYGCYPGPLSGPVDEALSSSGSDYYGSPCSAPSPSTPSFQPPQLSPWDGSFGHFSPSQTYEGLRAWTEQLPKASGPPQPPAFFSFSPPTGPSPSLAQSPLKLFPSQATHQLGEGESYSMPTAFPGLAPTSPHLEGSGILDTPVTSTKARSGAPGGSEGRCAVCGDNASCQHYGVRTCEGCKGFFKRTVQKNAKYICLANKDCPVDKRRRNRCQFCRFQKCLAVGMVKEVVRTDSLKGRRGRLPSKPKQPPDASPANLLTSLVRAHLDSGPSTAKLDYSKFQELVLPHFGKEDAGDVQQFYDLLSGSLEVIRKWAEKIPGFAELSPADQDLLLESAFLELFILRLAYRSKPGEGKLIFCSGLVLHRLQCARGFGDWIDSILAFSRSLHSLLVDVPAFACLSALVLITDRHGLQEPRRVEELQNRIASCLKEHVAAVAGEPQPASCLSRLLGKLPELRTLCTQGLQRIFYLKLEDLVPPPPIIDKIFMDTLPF

## CN(C)CCCNC(=O)c1cc2cc(Nc3nccc(-c4cccnc4)n3)ccc2[nH]1
HepG2 [1]
  viability at 10 µM: 43.7%
HepG2 [2]
  IC50: 9.04 µM
SMMC-7721
  IC50: 5.91 µM
HeLa
  IC50: 3.75 µM
A549
  IC50: 6.63 µM
[3]
  selectivity ratio: 1.24
[4]
  selectivity ratio: 1.9
[5]
  selectivity ratio: 3
[6]
  selectivity ratio: 3.47
[7]
  selectivity ratio: 1.7
[8]
  Kd: 0.354 µM
[8]; filed as modulator
  Activity: Dose-Dependent Effect
[9]
  Activity: Active
[10]
  Activity: inactive
HepG2 [11]
  Activity: Dose-Dependent Effect
HepG2 [12]
  Activity: 16.5%
HepG2 [13]
  Activity: 2.83%
HepG2 [14]
  Activity: 1.92%
HepG2 [15]
  Activity: 2.28%
[16]
  Activity: Active
[17]
  Activity: Non-Toxic
HepG2 [18]
  inhibition in vivo at 50 mg/kg: 71.8%
HepG2 [19]
  Activity: Active
[20]
  Activity: Non-Toxic
[21]
  Activity: Non-Toxic
[22]
  Activity: Non-Toxic
[23]
  Activity: Non-Toxic
